Assays:
Assay in all cases: cup-plate agar diffusion antimicrobial activity
Type in all cases: cell-based
Bacillus subtilis = tested on: Bacillus subtilis
Excerpt: (§1) Antibacterial activity of the synthesized compound has been tested using Gram-negative strains such as Escherichia coli, Salmonella enteric, Pseudomonas aeruginosa, and Pseudomonas putida; and Gram-positive strains such as Staphylococcus aureus, Staphylococcus epidermidis, Bacillus subtilis, and Micrococcus luteus. Additionally, antifungal activity has been tested using different Candida strains such as Candida albicans, Candida glabrata, and Candida krusei.
(§2) The present compound 3-(1-(3-(Dimethylamino)propyl)-4,5-diphenyl-1H-imidazol-2-yl)pyridin-2-ol was dissolved in DMF followed by dilution in buffer to obtain final concentrations of 60,000, 30,000 and 15,000 ppm. The final concentration of DMF was less than 2% in the final buffer solutions.
(§3) Negative control was performed using DMF diluted to similar final concentrations of compound solutions. Ampicillin and Geneticin were used as positive controls with similar dilutions and final concentrations.
(§4) Using the cup-plate agar diffusion method, a definite volume of the microbial suspension (inoculums) was mixed with sterilized agar media. Plates were prepared and left to solidify and then wells were prepared using a sterile cork borer. The wells were filled with an equal volume of a solution of synthesized compounds and standard drugs. The plates were incubated for a definite time under specified conditions. The zones of inhibition were measured in cm as a parameter of antimicrobial activity.
(§5) The tested antimicrobial activity of the 3-(1-(3-(Dimethylamino)propyl)-4,5-diphenyl-1H-imidazol-2-yl)pyridin-2-ol, as compared to ampicillin, can be seen in Table 1, below, with zones of inhibition measured in cm.

Escherichia coli = tested on: Escherichia coli
Excerpt: as §1, §2, §3, §4, §5

Micrococcus luteus = tested on: Micrococcus luteus
Excerpt: as §1, §2, §3, §4, §5

Pseudomonas aeruginosa = tested on: Pseudomonas aeruginosa
Excerpt: as §1, §2, §3, §4, §5

Pseudomonas putida = tested on: Pseudomonas putida
Excerpt: as §1, §2, §3, §4, §5

Salmonella enterica = tested on: Salmonella enterica
Excerpt: as §1, §2, §3, §4, §5

Staphylococcus aureus = tested on: Staphylococcus aureus
Excerpt: as §1, §2, §3, §4, §5

[1] = tested on: Staphylococcus epidermidis
Excerpt: as §1, §2, §3, §4, §5

## CN(C)CCCn1c(-c2cccnc2O)nc(-c2ccccc2)c1-c1ccccc1 [3-(1-(3-(Dimethylamino)propyl)-4,5-diphenyl-1H-imidazol-2-yl)pyridin-2-ol]
Bacillus subtilis; concentration 15
  zones of inhibition: 1.1 cm
Bacillus subtilis; concentration 30
  zones of inhibition: 1.5 cm
Bacillus subtilis; concentration 60
  zones of inhibition: 2.7 cm
Escherichia coli; concentration 15
  zones of inhibition: 0.6 cm
Escherichia coli; concentration 30
  zones of inhibition: 0.9 cm
Escherichia coli; concentration 60
  zones of inhibition: 1.00 cm
Micrococcus luteus; concentration 15
  zones of inhibition: 1.2 cm
Micrococcus luteus; concentration 30
  zones of inhibition: 2.4 cm
Micrococcus luteus; concentration 60
  zones of inhibition: 3.2 cm
Pseudomonas aeruginosa; concentration 15
  zones of inhibition: 0.6 cm
Pseudomonas aeruginosa; concentration 30
  zones of inhibition: 0.7 cm
Pseudomonas aeruginosa; concentration 60
  zones of inhibition: 1.1 cm
Pseudomonas putida; concentration 15
  zones of inhibition: 0.1 cm
Pseudomonas putida; concentration 30
  zones of inhibition: 0.5 cm
Pseudomonas putida; concentration 60
  zones of inhibition: 1.1 cm
Salmonella enterica; concentration 15
  zones of inhibition: 0.7 cm
Salmonella enterica; concentration 30
  zones of inhibition: 1.0 cm
Salmonella enterica; concentration 60
  zones of inhibition: 1.7 cm
Staphylococcus aureus; concentration 15
  zones of inhibition: 2.0 cm
Staphylococcus aureus; concentration 30
  zones of inhibition: 2.9 cm
Staphylococcus aureus; concentration 60
  zones of inhibition: 3.9 cm
[1]; concentration 15
  zones of inhibition: 2.1 cm
[1]; concentration 30
  zones of inhibition: 3.0 cm
[1]; concentration 60
  zones of inhibition: 3.3 cm

## CC1(C)S[C@@H]2[C@H](NC(=O)[C@H](N)c3ccccc3)C(=O)N2[C@H]1C(=O)O [Ampicillin]
Bacillus subtilis; concentration 15
  zones of inhibition: 1.2 cm
Bacillus subtilis; concentration 30
  zones of inhibition: 1.9 cm
Bacillus subtilis; concentration 60
  zones of inhibition: 2.3 cm
Escherichia coli; concentration 15
  zones of inhibition: 0.4 cm
Escherichia coli; concentration 30
  zones of inhibition: 0.8 cm
Escherichia coli; concentration 60
  zones of inhibition: 1.2 cm
Micrococcus luteus; concentration 15
  zones of inhibition: 1.8 cm
Micrococcus luteus; concentration 30
  zones of inhibition: 2.8 cm
Micrococcus luteus; concentration 60
  zones of inhibition: 3.6 cm
Pseudomonas aeruginosa; concentration 15
  zones of inhibition: 0.4 cm
Pseudomonas aeruginosa; concentration 30
  zones of inhibition: 0.8 cm
Pseudomonas aeruginosa; concentration 60
  zones of inhibition: 1.2 cm
Pseudomonas putida; concentration 15
  zones of inhibition: 0.3 cm
Pseudomonas putida; concentration 30
  zones of inhibition: 0.6 cm
Pseudomonas putida; concentration 60
  zones of inhibition: 1.0 cm
Salmonella enterica; concentration 15
  zones of inhibition: 0.9 cm
Salmonella enterica; concentration 30
  zones of inhibition: 1.3 cm
Salmonella enterica; concentration 60
  zones of inhibition: 1.6 cm
Staphylococcus aureus; concentration 15
  zones of inhibition: 2.9 cm
Staphylococcus aureus; concentration 30
  zones of inhibition: 3.5 cm
Staphylococcus aureus; concentration 60
  zones of inhibition: 4.0 cm
[1]; concentration 15
  zones of inhibition: 2.5 cm
[1]; concentration 30
  zones of inhibition: 3.0 cm
[1]; concentration 60
  zones of inhibition: 3.5 cm
